Tests used:
[1] = literature; cited from earlier work
[2] = tested on: trypsin, plasmin and kallikrein; conditions: literature, inhibiting trypsin; cited from earlier work
[3] = literature; cited from earlier work; remark: listed apart in the source
[4] = tested on: thrombotic occlusion of the carotid artery; test: Rat model of FeCl3-induced platelet-dependent arterial thrombosis; assay type: in vivo; conditions: dose that prevents complete thrombotic occlusion in 50% of animals tested, read-out: ED50 for thrombus prevention in the FeCl3 model of arterial thrombosis
Protocol: The antithrombotic (prevention of thrombus formation) properties of compounds of the present invention are evaluated using the following established experimental model of acute vascular thrombosis which is a rat model of FeCl3 -induced platelet-dependent arterial thrombosis.
This is a well characterized model of platelet dependent, arterial thrombosis which has been used in the evaluation potential antithrombotic compounds such as direct thrombin inhibitors. See, Kurz, K. D., Main, B. W., and Sandusky, G. E., Thromb. Res., 60: 269-280 (1990). In this model a platelet-rich, occlusive thrombus is formed in a segment of the rat carotid artery treated locally with a fresh solution of FeCl3 absorbed to a piece of filter paper. […] The effect of a test compound on the incidence of occlusive thrombus formation following the application of the […] is monitored by ultrasonic flowtometry and is used as the primary end point. […]
Following surgery the animals are randomized in either a control (saline) or treatment group with test compound, with at least 6 animals per group per dose. […] Blood pressure, blood flow, heart rate, and respiration are monitored for 60 minutes.
The incidence of occlusion (defined as the attainment of zero blood flow) is recorded as the primary end point. […]

SMILES | pharmacokinetics, in words [1] | selectivity, in words [2] | toxicity, in words [3] | ED50 [4]
N=C(N)c1ccc(CC(=O)C(=O)O)cc1 [APPA, 4-amidinophenylpyruvic acid] | favourable pharmacokinetics | non-selective, inhibiting trypsin, plasmin and kallikrein | low toxicity | –
CC1CNc2c(cccc2S(=O)(=O)N[C@@H](CCCNC(=N)N)C(=O)N2CC[C@@H](C)C[C@@H]2C(=O)O)C1 (stereo partly drawn) [Argatroban, 2R,4R-4-methyl-1-[N-2-(3-methyl-1,2,3,4-tetrahydro-8-quinolinesulfonyl)-L-argininy]-2-piperdinecarboxylic acid] | – | – | – | 3.8 mg/kg

Source: patent US6204384A, “Substituted 3-amino-2-hydroxyphenylacetamide derivatives as enzyme inhibitors (II)” (Corvas International, Inc., priority 1997, dated 2001)
